Assay results reported in PMC11676817, “Antiproliferative and Morphological Analysis Triggered by Drugs Contained in the Medicines for Malaria Venture COVID-Box Against Toxoplasma gondii Tachyzoites” (Microorganisms, 2024).
Read-outs that look alike come from different tables or passages of the source.

How the values were obtained:
[1] = Rat, cited from earlier work; for Plasma concentration (Cmax): ref Table S3 supplementary refs 3, 10, 12, 21; for Cmax: read-out: Plasma concentration (Cmax)
in vitro = details: human
[2] = test system: Toxoplasma gondii tachyzoites of the RH strain; assay: microbe, parasite or virus in culture; details: 168 h
T. gondii tachyzoites [3] = assay: Immunofluorescence microscopy of treated tachyzoites (aberrant cell division, rhoptry morphology); details: 24 h, IMC1 and DAPI labeling
Protocol: Rabbit anti-IMC1 (1:1000) and anti-ARO (1:1000) (kindly provided by Dr. Dominique Soldati, Universite de Geneve, Switzerland) were used to label the mother cell and daughter cell pellicles throughout the endodyogeny process and rhoptries, respectively. Mouse anti-SAG1 (1:200; kindly donated by Dr. Tiago Mineo, Universidade Federal de Uberlândia) was used to label the parasite plasma membrane. DAPI (2 µg/mL; Sigma-Aldrich, St. Louis, MO, USA) was used to label the DNA. […] After labeling with antibodies, the coverslips were mounted onto slides using Prolong gold (Life Technologies), and samples were examined on a Zeiss Axio Observer Z1 microscope (Baden-Württemberg, Germany) or Olympus BX60 microscope (Shinjuku City, Tokyo, Japan).

[4] = cited from earlier work
T. gondii tachyzoites [5] = details: cited from earlier work
[6] = Cytotoxicity assay in NHDF cells (MTS); details: human
T. gondii tachyzoites [7] = assay: Transmission electron microscopy of treated tachyzoites; assay type: cell-based, Toxoplasma gondii; details: 48 h
Protocol: NHDF cultures infected with T. gondii were treated with compounds and fixed with 2.5% glutaraldehyde (EM Grade—Ted Pella Inc., Redding, CA, USA) in 0.1 M sodium cacodylate buffer pH 7.4 (Ted Pella Inc.). Cells were post-fixed with 1% osmium tetroxide, 1.25% potassium ferrocyanide, and 5 mM CaCl2, in 0.1 M sodium cacodylate buffer (pH 7.4). The sample fixation and processing for microscopy were performed as previously described. Samples were dehydrated in alcohol solutions of increasing concentrations (35–100%) and embedded in epoxy resin (Polybed 812, Polysciences). Ultrathin sections were collected in copper grids 300 mesh (Ted Pella Inc.), stained with uranyl acetate and lead citrate, and then observed in a Fei TecNai G2 120 kV Spirit Electron Microscope (FEI Company, Eindhoven, The Netherlands).

[8] = test system: Toxoplasma gondii tachyzoites of the RH strain; details: 7 days of treatment
[9] = test system: Toxoplasma gondii tachyzoites of the RH strain; assay: microbe, parasite or virus in culture; assay type: cell-based; details: Toxoplasma gondii; for inhibition at 0.0625 µM / activity at 0.0625 µM: 62.5 nM; for activity at 0.125 µM: 125 nM
[10] = ref Table S3 supplementary refs 3, 10, 12, 28, 32
[11] = NHDF, read-out: IC50 (μM) in Tachyzoites, RH strain in NHDF cells, plaque assay, 7 days of treatment
[12] = read-out: IC50 against T. gondii proliferation, RH strain, 7 days of treatment
[13] = read-out: IC50 (μM) in Tachyzoites, RH strain in NHDF cells, plaque assay
[14] = read-out: IC50 against T. gondii proliferation, RH strain
[15] = 31.2 nM, 24 h of treatment, read-out: Proliferation index (%)
[16] = 24 h, read-out: Inhibition of parasite proliferation
[17] = 24 h of treatment, read-out: Proliferation index (%)
[18] = Human, ref Table S3 supplementary refs 1, 4, 8, 11, 13, 15, 17, 18, 19, 23, 31
[19] = read-out: Plasma concentration (Cmax), Human, ref Table S3 supplementary refs 1, 4, 8, 11, 13, 15, 17, 18, 19, 23
[20] = read-out: Plasma concentration (Cmax), Human, ref Table S3 supplementary refs 20, 22, 25, 31

**Q.** Which results are given for `COc1cc2c3cc1Oc1c(OC)c(OC)cc4c1[C@@H](Cc1ccc(O)c(c1)Oc1ccc(cc1)C[C@@H]3N(C)CC2)N(C)CC4` [Berbamine]?
**A.** Plasma concentration (Cmax) [1]: 32.6 ng/mL; Cmax [1, 10]: 53.6 nM; CC50 at 7 days (in vitro): 4610 ± 7520 nM; selectivity ratio at 7 days (in vitro): 15; IC50 [2, 11]: 0.31 ± 0.03 µM

**Q.** For `CC(C)C[C@H](NC(=O)[C@H](Cc1ccccc1)NC(=O)c1cnccn1)B(O)O` [Bortezomib], which “PVs with parasites with aberrant division” value (T. gondii tachyzoites [3]; 31.2 nM) is on record?
**A.** The value was 23.6%.

**Q.** What about the “PVs with parasites with aberrant division” value (T. gondii tachyzoites [3]; 62.5 nM) of the same compound?
**A.** Its value is 48.0%.

**Q.** What about the selectivity ratio at 7 days (in vitro) of the same compound?
**A.** The selectivity ratio at 7 days was 24.

**Q.** And the IC50 [2, 12]?
**A.** The IC50 was at most 0.03 µM.

**Q.** And the Cmax ([4]; human, in vivo)?
**A.** The Cmax was 148 nM.

**Q.** And the “Plasma concentration (Cmax)” value ([4]; human, in vivo)?
**A.** Its value is 56.7 ng/mL.

**Q.** What about the EC50 (T. gondii tachyzoites [5]; 72 h of treatment, ref Cajazeiro et al. (2022) [24], read-out: EC50 against T. gondii) of the same compound?
**A.** Its EC50 is 220 nM.

**Q.** And the IC50 (T. gondii tachyzoites [5]; 72 h of treatment, ref [34], read-out: IC50 in tachyzoites of T. gondii)?
**A.** The IC50 was 100 nM.

**Q.** And the CC50 at 7 days [6]?
**A.** Its CC50 at 7 days is 720 ± 240 nM.

**Q.** What about the “Effect on T. gondii ultrastructure (TEM)” value (T. gondii tachyzoites [7]; 62.5 nM) of the same compound?
**A.** The value was “affected the parasite cell division”.

**Q.** And the IC50 [8, 13]?
**A.** The IC50 was 0.03 µM.

**Q.** And the IC50 [8, 14]?
**A.** Its IC50 is under 0.03 µM.

**Q.** What about the inhibition at 0.0312 µM ([9]; 31.2 nM, 24 h, read-out: Inhibition of parasite proliferation) of the same compound?
**A.** Its inhibition at 0.0312 µM is 75 to 80%.

**Q.** And the activity at 0.0312 µM [9, 15]?
**A.** Its activity at 0.0312 µM is 20.9%.

**Q.** What about the inhibition at 0.0625 µM [9, 16] of the same compound?
**A.** Its inhibition at 0.0625 µM is over 90%.

**Q.** What about the activity at 0.0625 µM [9, 17] of the same compound?
**A.** Its activity at 0.0625 µM is 9.23%.

**Q.** With `C[C@@H]1C[C@@H]([C@H](O)CC2CC(=O)NC(=O)C2)C(=O)[C@@H](C)C1` [Cycloheximide] as the compound, how does the “Plasma concentration (Cmax)” value [1] read?
**A.** The value was 43.1 ng/mL.

**Q.** What about the Cmax [1, 10] of the same compound?
**A.** Its Cmax is 153 nM.

**Q.** What about the CC50 at 7 days (in vitro) of the same compound?
**A.** Its CC50 at 7 days is 6080 ± 4630 nM.

**Q.** And the IC50 [2, 12]?
**A.** The IC50 was at most 0.03 µM.

**Q.** What about the “Effect on T. gondii ultrastructure (TEM)” value (T. gondii tachyzoites [7]; 62.5 nM) of the same compound?
**A.** The value was “increased endoplasmic reticulum area”.

**Q.** What about the “Effect on T. gondii ultrastructure (TEM)” value (T. gondii tachyzoites [7]; 125 nM) of the same compound?
**A.** Its value is “vacuoles containing parasites were completely lysed”.

**Q.** What about the IC50 [8, 13] of the same compound?
**A.** The IC50 was 0.02 µM.

**Q.** And the IC50 [8, 14]?
**A.** The IC50 was under 0.03 µM.

**Q.** And the activity at 0.0312 µM [9, 15]?
**A.** Its activity at 0.0312 µM is 47.9%.

**Q.** And the inhibition at 0.0625 µM [9, 16]?
**A.** The inhibition at 0.0625 µM was 75 to 80%.

**Q.** And the activity at 0.0625 µM [9, 17]?
**A.** Its activity at 0.0625 µM is 30.5%.

**Q.** What about the activity at 0.125 µM [9, 17] of the same compound?
**A.** The activity at 0.125 µM was 33%.

**Q.** For `C[C@H]1O[C@@H](O[C@H]2[C@@H](O)C[C@H](O[C@H]3[C@@H](O)C[C@H](O[C@H]4CC[C@@]5(C)[C@H](CC[C@@H]6[C@@H]5C[C@@H](O)[C@]5(C)[C@@H](C7=CC(=O)OC7)CC[C@]65O)C4)O[C@@H]3C)O[C@@H]2C)C[C@H](O)[C@@H]1O` [Digoxin], which CC50 at 7 days (in vitro) is on record?
**A.** The CC50 at 7 days was 340 ± 320 nM.

**Q.** And the IC50 [2, 12]?
**A.** The IC50 was at most 0.03 µM.

**Q.** What about the IC50 [2, 11] of the same compound?
**A.** The IC50 was 0.03 ± 0.01 µM.

**Q.** What does the source list for `CC[C@H]1CN2CCc3cc(OC)c(OC)cc3[C@@H]2C[C@@H]1C[C@H]1NCCc2cc(OC)c(OC)cc21` [Emetine]?
**A.** CC50 at 7 days (in vitro): 1020 ± 190 nM; IC50 [2, 12]: < 0.1 µM; IC50 [2, 11]: 0.05 ± 0.01 µM; Plasma concentration (Cmax) [4, 18]: 9.6 ng/mL; Cmax [4, 19]: 20 nM

**Q.** Which IC50 [2, 12] does the source give for `CC(C)(C)Cn1c(N)nc2ccc(-c3[nH]c(C(C)(C)C)nc3-c3ccc(F)cc3)nc21` [LY2228820] here?
**A.** The IC50 was under 0.1 µM.

**Q.** What about the IC50 [2, 11] of the same compound?
**A.** Its IC50 is 0.04 µM.

**Q.** Which IC50 [2, 11] does the source give for `COC(=O)C1=C(C)NC(C)=C(C(=O)OCCN2CCN(C(c3ccccc3)c3ccccc3)CC2)C1c1cccc([N+](=O)[O-])c1` (stereo not shown) [Manidipine] here?
**A.** Its IC50 is 0.74 ± 0.09 µM.

**Q.** And the Cmax ([4]; human, in vivo)?
**A.** The Cmax was 9 nM.

**Q.** What about the “Plasma concentration (Cmax)” value ([4]; human, in vivo) of the same compound?
**A.** The value was 5.53 ng/mL.

**Q.** For `COc1cc(NC(=O)Nc2cccc(CNC(=O)O[C@H]3CCOC3)c2)ccc1-c1cnco1` [Merimepodib], which IC50 [2, 11] is on record?
**A.** Its IC50 is under 0.5 µM.

**Q.** What about the “Plasma concentration (Cmax)” value [4, 18] of the same compound?
**A.** Its value is 1590 ng/mL.

**Q.** And the Cmax [4, 19]?
**A.** Its Cmax is 5510 nM.

**Q.** What about the IC50 (T. gondii tachyzoites [5]; 72 h of treatment, ref [23], read-out: IC50 for T. gondii tachyzoites) of the same compound?
**A.** Its IC50 is 780 nM.

**Q.** What about the IC50 [8, 13] of the same compound?
**A.** Its IC50 is 0.48 ± 0.08 µM.

**Q.** What about the inhibition at […] ([9]; 1.5 µM, 24 h, read-out: Inhibition of parasite proliferation) of the same compound?
**A.** The inhibition at […] was 55 to 60%.

**Q.** And the inhibition at 2 µM ([9]; 2.0 µM, 24 h, read-out: Inhibition of parasite proliferation)?
**A.** The inhibition at 2 µM was 55 to 60%.

**Q.** Which selectivity ratio at 7 days (in vitro) does the source give for `COc1c(C)c2c(c(O)c1C/C=C(\C)CCC(=O)O)C(=O)OC2` [Mycophenolic acid] here?
**A.** The selectivity ratio at 7 days was 340.

**Q.** What about the IC50 [2, 12] of the same compound?
**A.** Its IC50 is under 0.1 µM.

**Q.** And the IC50 [2, 11]?
**A.** The IC50 was 0.07 ± 0.01 µM.

**Q.** And the “Plasma concentration (Cmax)” value ([4]; Human, ref Table S3 supplementary refs 20, 25)?
**A.** The value was 24300 ng/mL.

**Q.** And the Cmax [4, 20]?
**A.** The Cmax was 75800 nM.

**Q.** And the IC50 (T. gondii tachyzoites [5]; 24 h of treatment, ref [23], read-out: IC50 for T. gondii tachyzoites)?
**A.** Its IC50 is 211000 nM.

**Q.** And the CC50 at 7 days [6]?
**A.** The CC50 at 7 days was 23800 ± 32000 nM.

**Q.** What about the “Effect on T. gondii ultrastructure (TEM)” value (T. gondii tachyzoites [7]; 250 nM) of the same compound?
**A.** The value was “affected the tachyzoites’ division process”.

**Q.** What about the activity at 0.125 µM [9, 17] of the same compound?
**A.** The activity at 0.125 µM was 61.3%.

**Q.** And the inhibition at […] ([9]; 250 nM (0.25 µM), 24 h, read-out: Inhibition of parasite proliferation)?
**A.** The inhibition at […] was 55 to 60%.

**Q.** What about the activity at […] ([9]; 250 nM, 24 h of treatment, read-out: Proliferation index (%)) of the same compound?
**A.** Its activity at […] is 42%.

**Q.** What does the source list for `O=C(Nc1ccc([N+](=O)[O-])cc1Cl)c1cc(Cl)ccc1O` [Niclosamide]?
**A.** Cmax ([1]; ref Table S3 supplementary refs 21, 29): 1080 nM; selectivity ratio at 7 days (in vitro): 8; IC50 [2, 11]: 0.36 ± 0.02 µM; Plasma concentration (Cmax) ([4]; Human, ref Table S3 supplementary ref 22): 1280 ng/mL; Cmax [4, 20]: 3900 nM; CC50 at 7 days [6]: 3050 ± 80 nM
